# System: rat myocardial I/R model
# Experiment: Heart blood flow volume by laser Doppler perfusion imaging (LDPI)
# Format: in vivo
# Conditions: for heart blood flow volume regained compared to I/R group (LDPI images) / inhibitory effect on the decrease of the heart blood flow volume after I/R: 5 mg/kg BW/h intravenous drip; for heart blood flow volume regained compared to I/R group (LDPI images): at 30 min and 60 min after reperfusion, FIG. 4A; for inhibitory effect on the decrease of the heart blood flow volume after I/R: FIG. 5A
# Protocol: The rats were anesthetized by intramuscularly injecting 20 wt % urethane (1.25 g/kg) and fixed in the supine position. Neck skin was incised and anterior cervical muscles were separated to expose the trachea. Tracheal intubation was performed. Another end of the intubation was attached to a Small Animal Ventilator (ALC-V8, Shanghai Aoteshai Biology Science and Technology Limited Company, Shanghai, China) so as to carry out pressure breathing under the following conditions: a respiratory ratio of 1:1, a respiratory frequency of 75 times/min and a tidal volume of 12 mL/kg. The rectal temperature, measured with YSI REF 401 (Yellow Spring, Ohio, USA), was maintained at 37 37.5° C. by using a thermal blanket. The chest was sterilized and opened at the intercostal space between 2nd 4th ribs near the left and right sternal border to expose the heart. The 3⁄8 curved needle threaded with 3-0 suture was used to pass through the site at 1 2 mm below the juncture of the pulmonary artery cone and the left atrial appendage. The suture was ligated. A polyethylene tubule was placed between the silk suture and myocardial tissue, the silk suture was […] to cause ischemia. Ligature was released 30 min later to establish an I/R model. Danshensu+I/R group (DLA+I/R group): a Danshensu aqueous solution (in normal saline, 1.25 mg/ml) was administrated at a dosage of 5 mg/kg BW/h by intravenous drip 20 min before the experiment and continued until the end of the entire experiment. Notoginsenoside R1+I/R group (R1+I/R group): a Notoginsenoside R1 aqueous solution (in normal saline, 1.25 mg/ml) was administrated at a dosage of 5 mg/kg BW/h by intravenous drip 20 min before the experiment and continued until the end of the entire experiment. Danshensu:R1(4:1)+I/R group (DR(4:1)+I/R group): an aqueous solution of Danshensu and Notoginsenoside R1 at a weight ratio of 4:1, dissolved in normal saline (1.25 mg/ml, namely, in the solution, the concentration of Danshensu is 1 mg/ml and the concentration of Notoginsenoside R1 is 0.25 mg/ml), was administrated at a dosage of 5 mg/kg BW/h (namely, in the total dosage, the dosage of Danshensu is 4 mg/kg BW/h and the dosage of Notoginsenoside R1 is 1 mg/kg BW/h) by intravenous drip 20 min before the experiment and continued until the end of the entire experiment. Danshensu:R1 (1:1)+I/R group (DR(1:1)+IR group): an aqueous solution of Danshensu and Notoginsenoside R1 at a weight ratio of 1:1, dissolved in normal saline (1.25 mg/ml, namely, in the solution, the concentration of Danshensu is 0.625 mg/ml and the concentration of Notoginsenoside R1 is 0.625 mg/ml), was administrated at a dosage of 5 mg/kg BW/h (namely, in the total dosage, the dosage of Danshensu is 2.5 mg/kg BW/h and the dosage of Notoginsenoside R1 is 2.5 mg/kg BW/h) by intravenous drip 20 min before the experiment and continued until the end of the entire experiment. […] Blood flow volumes on the surface of heart before ischemia, 5 min, 30 min after ischemia, and 5 min, 30 min, 60 min after reperfusion had been recorded by a computer-aided laser Doppler perfusion imager (LDPI) (PeriScan PIM3, […], Sweden). Images were measured and the data were evaluated with […] software. Change rate of blood flow volume of the heart was calculated by taking the blood flow volume before I/R as a baseline.
SMILES,heart blood flow volume regained compared to I/R group (LDPI images),inhibitory effect on the decrease of the heart blood flow volume after I/R (no time stated),inhibitory effect on the decrease of the heart blood flow volume after I/R (at 5 min after reperfusion),"amelioration of heart perfusion flow caused by I/R (summary) (rats, summary statement of the description)"
CC(C)=CCC[C@](C)(O[C@@H]1O[C@H](CO)[C@@H](O)[C@H](O)[C@H]1O)[C@H]1CC[C@]2(C)[C@@H]1[C@H](O)C[C@@H]1[C@@]3(C)CC[C@H](O)C(C)(C)[C@@H]3[C@@H](O[C@@H]3O[C@H](CO)[C@@H](O)[C@H](O)[C@H]3O[C@@H]3OC[C@@H](O)[C@H](O)[C@H]3O)C[C@]12C [Notoginsenoside R1],regained to some extent,has not been observed to have significantly inhibitory effect,,
"O=C(O)C(O)Cc1ccc(O)c(O)c1 (centres unmarked) [Danshensu, (3,4-dihydroxyphenyl)lactic acid]",regained to some extent,,significantly inhibitory effect,transiently ameliorate
